Biological target: MK2 (Homo sapiens, UniProt P49137)
Experiment: Inhibition in solution assay of kinase MK2
Type: biochemical
Details: IC50 extrapolated from the dose dependent inhibition graphs (FIG. 6)
From the text: Determination of affinity of MK2 inhibitors (IC50) through inhibition in solution assay of kinase MK2 by various compounds of general formula I-VI

Sequence of MK2 (P49137 whole entry, species assumed): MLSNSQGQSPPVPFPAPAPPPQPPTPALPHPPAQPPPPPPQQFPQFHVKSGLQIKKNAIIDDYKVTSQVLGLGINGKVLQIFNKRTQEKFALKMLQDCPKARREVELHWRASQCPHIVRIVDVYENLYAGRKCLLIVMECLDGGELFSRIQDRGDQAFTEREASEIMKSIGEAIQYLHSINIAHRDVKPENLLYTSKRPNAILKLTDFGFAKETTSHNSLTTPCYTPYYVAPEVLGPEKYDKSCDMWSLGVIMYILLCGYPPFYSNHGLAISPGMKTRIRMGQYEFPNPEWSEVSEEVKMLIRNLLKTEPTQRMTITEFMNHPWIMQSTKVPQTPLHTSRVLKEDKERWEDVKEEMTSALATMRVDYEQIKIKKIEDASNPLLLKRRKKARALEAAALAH

- IC50: 585 nM
Structure (SMILES): Cc1ccc(-c2ccc3c(ccc4sc5c(c43)NC[C@@H](C)NC5=O)n2)cn1 [PF 3644022]

From patent US12595234B2, “Bioactive benzocycloheptene analogues from himachalenes and its applications” (Council of Scientific and Industrial Research, priority 2020, dated 2026)
